Assay results from US20240368163A1, “COMPOUNDS AND METHODS FOR MODULATING SPLICING” (REMIX THERAPEUTICS INC., priority 2021, published 2024).
pIC50: −log10 of the molar value.

What was measured:
Assay type in all cases: cell-based, human
SMN2 = assay: Splicing RT-qPCR panel, SMN2 canonical junction (CJ) mRNA; conditions: Homo sapiens, gene panel, CJ qPCR, protocol of Example 142; read-out: SMN2 IC50 (decrease in CJ mRNA levels)
Summary of the method: (§1)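 Cells: A673 (DMEM/10% FBS) or K562 (IMDM/10% FBS). Dose: 11-pt 3-fold, top 10 uM final, ≤0.25% DMSO, 24 h, 37 °C. Readout: RT-qPCR of CJ/AJ exon junctions, ΔΔCt vs housekeeper and DMSO, RQ to % response.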

HTT [1] = assay: Splicing RT-qPCR assay, HTT mRNA canonical junction (CJ) and alternative junction (AJ); conditions: Homo sapiens, gene panel, CJ qPCR, protocol of Example 142; read-out: HTT IC50 (decrease in CJ mRNA levels)
Summary of the method: as §1

MYB [2] = assay: HiBiT protein abundance assay, MYB; conditions: Homo sapiens, K562, 24 h, Table 13B, modified K562 cells
Summary of the method: (§2)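 Protein abundance measured by Nano-Glo HiBiT lytic luminescence after 24 h compound exposure of modified K562 lines, 10000 cells/well, top final dose 10 μM in 3-fold steps. Four-parameter fit of control-normalised response gives concentration reducing abundance to 50% of untreated.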

Target C [3] = assay: HiBiT protein abundance assay, Target C; conditions: Homo sapiens, K562, 24 h, Table 13B, modified K562 cells
Summary of the method: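 Target protein levels in engineered HiBiT-tagged cells were read by lytic luminescence after 24 h compound exposure (10000 cells/well, 10 μM top final, 3-fold steps, ≤0.25% DMSO). Unmodified K562 served as baseline; four-parameter regression gave concentration reducing abundance to 50%.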

Target C [4] = assay: Splicing RT-qPCR panel, Target C canonical junction (CJ) mRNA; conditions: Homo sapiens, gene panel, CJ qPCR, protocol of Example 142; read-out: Target C IC50 (decrease in CJ mRNA levels)
Summary of the method: as §1

HTT [5] = assay: HiBiT protein abundance assay, HTT; conditions: Homo sapiens, K562, 24 h, Table 13B, modified K562 cells
Summary of the method: as §2

MYB [6] = assay: Splicing RT-qPCR assay, MYB mRNA canonical junction (CJ) and alternative junction (AJ); conditions: Homo sapiens, gene panel, CJ qPCR, protocol of Example 142; read-out: MYB IC50 (decrease in CJ mRNA levels)
Summary of the method: as §1

Row | SMILES | pIC50 (SMN2) | pIC50 (HTT [1]) | pIC50 (MYB [2]) | pIC50 (Target C [3]) | pIC50 (Target C [4]) | pIC50 (HTT [5]) | pIC50 (MYB [6])
1 | COc1nc(-c2ccc(NC3CCNCC3)nn2)ccc1-c1cnn(C)n1 [Compound 933] | 5.00 to 6.00 | < 5.00 | 5.00 to 6.00 | 5.00 to 6.00 | < 5.00 | 5.00 to 6.00 | < 5.00
2 | COc1nc(-c2ccc(OC3CC(C)(C)NC(C)(C)C3)nn2)ccc1-n1cccn1 [Compound 934] | 5.00 to 6.00 | 5.00 to 6.00 | 5.00 to 6.00 | 5.00 to 6.00 | < 5.00 | 5.00 to 6.00 | < 5.00
3 | COc1nc(-c2ccc(N(C)C3CC(C)(C)NC(C)(C)C3)nn2)ccc1-n1cccn1 [Compound 935] | 6.00 to 7.00 | 6.00 to 7.00 | 6.00 to 7.00 | 6.00 to 7.00 | 6.00 to 7.00 | 6.00 to 7.00 | 6.00 to 7.00
4 | CNc1nc(-c2ccc(N(C)[C@@H]3C[C@H]4CC[C@@H](C3)N4)nn2)ccc1-c1cn[nH]c1 [Compound 936] | > 7.00 | 6.00 to 7.00 | 6.00 to 7.00 | 6.00 to 7.00 | 6.00 to 7.00 | 6.00 to 7.00 | 5.00 to 6.00
5 | CC(C)Oc1nc(-c2ccc(N(C)[C@@H]3C[C@H]4CC[C@@H](C3)N4)nn2)ccc1-c1cn[nH]c1 [Compound 937] | > 7.00 | 6.00 to 7.00 | 6.00 to 7.00 | 5.00 to 6.00 | 5.00 to 6.00 | 6.00 to 7.00 | 6.00 to 7.00
6 | CN(C)c1nc(-c2ccc(N(C)[C@@H]3C[C@H]4CC[C@@H](C3)N4)nn2)ccc1-c1cn[nH]c1 [Compound 938] | 5.00 to 6.00 | 5.00 to 6.00 | 5.00 to 6.00 | 5.00 to 6.00 | 5.00 to 6.00 | 5.00 to 6.00 | < 5.00
7 | COc1nc(-c2ccc(NC3CCNCC3)nn2)ccc1-n1cccn1 [Compound 941] | 5.00 to 6.00 | < 5.00 | < 5.00 | < 5.00 | < 5.00 | < 5.00 | < 5.00
8 | COc1nc(-c2ccc(N[C@@H]3C[C@H]4CC[C@@H](C3)N4)nn2)ccc1-c1cnn(C)n1 [Compound 942] | > 7.00 | 5.00 to 6.00 | 6.00 to 7.00 | 6.00 to 7.00 | 5.00 to 6.00 | > 7.00 | < 5.00
9 | COc1nc(-c2ccc(O[C@@H]3C[C@H]4CC[C@@H](C3)N4)nn2)ccc1-c1cn(C)nn1 [Compound 943] | < 5.00 | 5.00 to 6.00 | 5.00 to 6.00 | < 5.00 | < 5.00 | 5.00 to 6.00 | < 5.00
10 | COc1nc(-c2ccc(N[C@@H]3C[C@H]4CC[C@@H](C3)N4)nn2)ccc1-c1cn(C)nn1 [Compound 944] | 6.00 to 7.00 | 6.00 to 7.00 | 6.00 to 7.00 | 5.00 to 6.00 | 5.00 to 6.00 | 5.00 to 6.00 | 5.00 to 6.00
11 | COc1nc(-c2ccc(N(C)[C@@H]3C[C@H]4CC[C@@H](C3)N4)nn2)ccc1-c1cn(C)nn1 [Compound 945] | > 7.00 | 6.00 to 7.00 | 6.00 to 7.00 | 6.00 to 7.00 | 5.00 to 6.00 | 6.00 to 7.00 | 5.00 to 6.00
12 | COc1nc(-c2ccc(OC3CC(C)(C)NC(C)(C)C3)nn2)ccc1-c1cn(C)nn1 [Compound 946] | 6.00 to 7.00 | 5.00 to 6.00 | 5.00 to 6.00 | < 5.00 | < 5.00 | 5.00 to 6.00 | 5.00 to 6.00
13 | COc1nc(-c2ccc(N[C@@H]3C[C@H]4CC[C@@H](C3)N4)nn2)ccc1-n1cccn1 [Compound 948] | 6.00 to 7.00 | 6.00 to 7.00 | 6.00 to 7.00 | 6.00 to 7.00 | 5.00 to 6.00 | 6.00 to 7.00 | 5.00 to 6.00
14 | COc1nc(-c2ccc(OC3CC4CCC(C3)N4)nn2)ccc1-n1cccn1 (centres unmarked) [Compound 949] | 5.00 to 6.00 | 5.00 to 6.00 | 5.00 to 6.00 | 5.00 to 6.00 | < 5.00 | 5.00 to 6.00 | < 5.00
15 | COc1nc(-c2ccc(N(C)[C@@H]3C[C@H]4CC[C@@H](C3)N4)nn2)ccc1-c1cnc(C)cn1 [Compound 950] | > 7.00 | 6.00 to 7.00 | 6.00 to 7.00 | 6.00 to 7.00 | 5.00 to 6.00 | 6.00 to 7.00 | 6.00 to 7.00
16 | COc1cnc(-c2ccc(-c3ccc(N(C)[C@@H]4C[C@H]5CC[C@@H](C4)N5)nn3)nc2OC)cn1 [Compound 951] | 6.00 to 7.00 | 6.00 to 7.00 | 6.00 to 7.00 | 6.00 to 7.00 | 6.00 to 7.00 | > 7.00 | 6.00 to 7.00
17 | COc1nc(-c2ccc(N3CCC(NC(C)(C)C)C3)nn2)ccc1-n1cccn1 (centres unmarked) [Compound 957] | 5.00 to 6.00 | 5.00 to 6.00 | 5.00 to 6.00 | 5.00 to 6.00 | 5.00 to 6.00 | 5.00 to 6.00 | 5.00 to 6.00
18 | COc1nc(-c2ccc(N3CCC(NC4CC4)C3)nn2)ccc1-n1cccn1 (centres unmarked) [Compound 958] | 5.00 to 6.00 | < 5.00 | < 5.00 | < 5.00 | < 5.00 | < 5.00 | < 5.00
19 | COc1cc(-c2ccc(-c3ccc(N(C)[C@@H]4C[C@H]5CC[C@@H](C4)N5)nn3)nc2OC)cnn1 [Compound 959] | > 7.00 | > 7.00 | 6.00 to 7.00 | 6.00 to 7.00 | 6.00 to 7.00 | > 7.00 | 6.00 to 7.00
20 | COc1nc(-c2ccc(N(C)[C@@H]3C[C@H]4CC[C@@H](C3)N4)nn2)ccc1-c1cnnc(C)c1 [Compound 960] | 6.00 to 7.00 | 5.00 to 6.00 | 5.00 to 6.00 | < 5.00 | 5.00 to 6.00 | 5.00 to 6.00 | 5.00 to 6.00
21 | COc1nc(-c2ccc(O[C@@H]3C[C@H]4CC[C@@H](C3)N4)nn2)ccc1-c1ccnc(C)c1 [Compound 963] | 5.00 to 6.00 | 5.00 to 6.00 | 5.00 to 6.00 | < 5.00 | < 5.00 | 5.00 to 6.00 | 5.00 to 6.00
22 | COc1nc(-c2ccc(OC3CC4CC(F)(F)C(C3)N4)nn2)ccc1-c1ccnc(C)c1 (centres unmarked) [Compound 964] | < 5.00 | < 5.00 | < 5.00 | < 5.00 | < 5.00 | < 5.00 | < 5.00
23 | CC1(C)CC(Oc2ccc(-c3ccc(-c4cn[nH]c4)c(OC4CC4)n3)nn2)CC(C)(C)N1 [Compound 968] | 6.00 to 7.00 | 6.00 to 7.00 | 5.00 to 6.00 | 5.00 to 6.00 | 5.00 to 6.00 | 6.00 to 7.00 | 5.00 to 6.00
